Laboratory results: patent US8592407B2, “Pyrrolo[2,1-c][1,4] benzodiazepine derivatives with dithiocarbamate side chains and process for the preparation thereof” (Council of Scientific & Industrial Research, priority 2008, dated 2013)

Key:
[1] = system: Leukemia panel; test: NCI screen, panel average; type: cell-based, human; details: for LC50 (50% lethal concentration): Homo sapiens, read-out: Log10 LC50 (concentration in mol/L causing 50% lethality) (converted); for Log10 GI50 (concentration in mol/L): Leukemia, average of six to eight cell lines
[2] = system: CNS panel; test: NCI screen, panel average; type: cell-based, human; details: for Log10 GI50 (concentration in mol/L): CNS, average of six to eight cell lines; for LC50: Homo sapiens, read-out: Log10 LC50 (concentration in mol/L causing 50% lethality) (converted)
[3] = system: Breast panel; test: NCI screen, panel average; type: cell-based, human; details: for Log10 GI50 (concentration in mol/L): Breast, average of six to eight cell lines; for LC50: Homo sapiens, read-out: Log10 LC50 (concentration in mol/L causing 50% lethality) (converted)
[4] = system: CCRF-CEM; test: NCI in vitro cytotoxicity (SRB); type: cell-based; details: Homo sapiens; Leukemia CCRF-CEM; 48 h exposure
[5] = system: HL-60(TB); test: NCI in vitro cytotoxicity (SRB); type: cell-based; details: Homo sapiens; Leukemia HL-60(TB); 48 h exposure
[6] = system: K-562; test: NCI in vitro cytotoxicity (SRB); type: cell-based; details: Homo sapiens, K562; Leukemia K-562; 48 h exposure
[7] = system: MOLT-4; test: NCI in vitro cytotoxicity (SRB); type: cell-based; details: Homo sapiens
[8] = system: RPMI-8226; test: NCI in vitro cytotoxicity (SRB); type: cell-based; details: Homo sapiens; Leukemia RPMI-8226; 48 h exposure
[9] = system: SR; test: NCI in vitro cytotoxicity (SRB); type: cell-based; details: Homo sapiens
[10] = system: A549/ATCC; test: NCI in vitro cytotoxicity (SRB); type: cell-based; details: Homo sapiens; Non-smallcell lung A549/ATCC; 48 h exposure
[11] = system: EKVX; test: NCI in vitro cytotoxicity (SRB); type: cell-based; details: Homo sapiens; Non-smallcell lung EKVX; 48 h exposure
[12] = system: HOP-62; test: NCI in vitro cytotoxicity (SRB); type: cell-based; details: Homo sapiens
[13] = system: NCI-H226; test: NCI in vitro cytotoxicity (SRB); type: cell-based; details: Homo sapiens; Non-smallcell lung NCI-H226; 48 h exposure
[14] = system: NCI-H23; test: NCI in vitro cytotoxicity (SRB); type: cell-based; details: Homo sapiens; Non-smallcell lung NCI-H23; 48 h exposure
[15] = system: NCI-H460; test: NCI in vitro cytotoxicity (SRB); type: cell-based; details: Homo sapiens; Non-smallcell lung NCI-H460; 48 h exposure
[16] = system: COLO 205; test: NCI in vitro cytotoxicity (SRB); type: cell-based; details: Homo sapiens; Colon COLO 205; 48 h exposure
[17] = system: HCT-116; test: NCI in vitro cytotoxicity (SRB); type: cell-based; details: Homo sapiens
[18] = system: KM12; test: NCI in vitro cytotoxicity (SRB); type: cell-based; details: Homo sapiens; Colon KM12; 48 h exposure
[19] = system: SW-620; test: NCI in vitro cytotoxicity (SRB); type: cell-based; details: Homo sapiens
[20] = system: SF-268; test: NCI in vitro cytotoxicity (SRB); type: cell-based; details: Homo sapiens
[21] = system: SNB-75; test: NCI in vitro cytotoxicity (SRB); type: cell-based; details: Homo sapiens; CNS SNB-75; 48 h exposure
[22] = system: MALME-3M; test: NCI in vitro cytotoxicity (SRB); type: cell-based; details: Homo sapiens
[23] = system: IGROV1; test: NCI in vitro cytotoxicity (SRB); type: cell-based; details: Homo sapiens, IGROV-1
[24] = system: OVCAR-4; test: NCI in vitro cytotoxicity (SRB); type: cell-based; details: Homo sapiens; Ovarian OVCAR-4; 48 h exposure
[25] = system: OVCAR-5; test: NCI in vitro cytotoxicity (SRB); type: cell-based; details: Homo sapiens; Ovarian OVCAR-5; 48 h exposure
[26] = system: 786-0; test: NCI in vitro cytotoxicity (SRB); type: cell-based; details: Homo sapiens; Renal 786-0; 48 h exposure
[27] = system: A498; test: NCI in vitro cytotoxicity (SRB); type: cell-based; details: Homo sapiens; Renal A498; 48 h exposure
[28] = system: ACHN; test: NCI in vitro cytotoxicity (SRB); type: cell-based; details: Homo sapiens; Renal ACHN; 48 h exposure
[29] = system: CAKI-1; test: NCI in vitro cytotoxicity (SRB); type: cell-based; details: Homo sapiens; Renal CAKI-1; 48 h exposure
[30] = system: RXF 393; test: NCI in vitro cytotoxicity (SRB); type: cell-based; details: Homo sapiens; Renal RXF 393; 48 h exposure
[31] = system: MDA-MB-; test: NCI in vitro cytotoxicity (SRB); type: cell-based; details: Homo sapiens; Breast MDA-MB-; 48 h exposure
[32] = system: HS 578T; test: NCI in vitro cytotoxicity (SRB); type: cell-based; details: Homo sapiens; Breast HS 578T; 48 h exposure
[33] = system: BT-549; test: NCI in vitro cytotoxicity (SRB); type: cell-based; details: Homo sapiens; Breast BT-549; 48 h exposure
[34] = system: T-47D; test: NCI in vitro cytotoxicity (SRB); type: cell-based; details: Homo sapiens, T47D; Breast T-47D; 48 h exposure
[35] = system: DU-145; test: NCI in vitro cytotoxicity (SRB); type: cell-based; details: Homo sapiens
[36] = system: UACC-257; test: NCI in vitro cytotoxicity (SRB); type: cell-based; details: Homo sapiens; Melanoma UACC-257; 48 h exposure
[37] = system: UACC-62; test: NCI in vitro cytotoxicity (SRB); type: cell-based; details: Homo sapiens; Melanoma UACC-62; 48 h exposure
[38] = system: sixty human tumour cell lines; details: mean over human tumour cell lines
Procedure: For each compound, dose response curves for each cell line were measured at a minimum of five concentrations at 10 fold dilutions. A protocol of 48 h continuous drug exposure was used and a sulforhodamine B (SRB) protein assay was used to estimate cell viability or growth. The concentration causing 50% cell growth inhibition (G150), total cell growth inhibition (TGI 0% growth) and 50% cell death (LC50, −50% growth) compared with the control was calculated.

[39] = Non-smallcell lung HOP-62, 48 h exposure
[40] = Melanoma MALME-3M, 48 h exposure

Compound: COc1cc2c(cc1OCCCN1CCN(C(=S)SCCC(C#N)(c3ccccc3)c3ccccc3)CC1)N=C[C@@H]1CCCN1C2=O [Compound 12b, 3-cyano-3,3-diphenylpropyl 4-(3-[(11aS)-7-(methyloxy)-5-oxo-2,3,5,11a-tetrahydro-1H-benzo[e]pyrrolo[1,2-a][1,4]diazepin-8-yl]oxypropyl)hexahydro-1-pyrazinecarbodithioate]
- LC50 (50% lethal concentration) [1]: 55000 nM
- Log10 GI50 (concentration in mol/L) [1]: −6.63 mol/L
- Log10 GI50 (concentration in mol/L) [2]: −6.12 mol/L
- LC50 [2]: 4470 nM
- Log10 GI50 (concentration in mol/L) [3]: −6.13 mol/L
- LC50 [3]: 37200 nM
- GI50 [4]: 230 nM
- GI50 [5]: 250 nM
- GI50 [6]: 260 nM
- GI50 ([7]; Leukemia MOLT-4, 48 h exposure): 220 nM
- GI50 ([7]; leukemia MOLT-4): 220 nM
- GI50 [8]: 220 nM
- GI50 ([9]; Leukemia SR, 48 h exposure): 180 nM
- GI50 ([9]; leukemia SR): 180 nM
- GI50 [10]: 1220 nM
- GI50 [11]: 2290 nM
- GI50 [12, 39]: 120 nM
- GI50 ([12]; non-small cell lung HOP-62): 210 nM
- GI50 [13]: 1510 nM
- GI50 [14]: 1400 nM
- GI50 [15]: 770 nM
- GI50 [16]: 1300 nM
- GI50 ([17]; Colon HCT-116, 48 h exposure): 380 nM
- GI50 ([17]; colon cancer HCT-116): 380 nM
- GI50 [18]: 1070 nM
- GI50 ([19]; Colon SW-620, 48 h exposure): 510 nM
- GI50 ([19]; colon cancer SW-620): 510 nM
- GI50 ([20]; SF-268, CNS SF268): 280 nM
- GI50 ([20]; CNS SF-268, 48 h exposure): 280 nM
- GI50 [21]: 1260 nM
- GI50 [22, 40]: 930 nM
- GI50 ([22]; melanoma MALME-3M): 930 nM
- GI50 ([23]; Ovarian IGROV1, 48 h exposure): 300 nM
- GI50 ([23]; ovarian IGROV1): 300 nM
- GI50 [24]: 2110 nM
- GI50 [25]: 1350 nM
- GI50 [26]: 1060 nM
- GI50 [27]: 910 nM
- GI50 [28]: 940 nM
- GI50 [29]: 300 nM
- GI50 [30]: 190 nM
- GI50 [31]: 1410 nM
- GI50 [32]: 560 nM
- GI50 [33]: 920 nM
- GI50 [34]: 570 nM
- GI50 ([35]; Prostate DU-145, 48 h exposure): 260 nM
- GI50 ([35]; prostate DU-145): 260 nM
- GI50 [36]: 2000 nM
- GI50 [37]: 1060 nM
- Log10GI50 mean graph midpoint (MG_MID) [38]: −6.15
- Log10LC50 mean graph midpoint (MG_MID) [38]: −4.96
- Log10TGI mean graph midpoint (MG_MID) [38]: −5.67

Compound: COc1cc2c(cc1OCCCCN1CCN(C(=S)SCCC(C#N)(c3ccccc3)c3ccccc3)CC1)N=C[C@@H]1CCCN1C2=O [Compound 12c, 3-cyano-3,3-diphenylpropyl 4-(4-[(11aS)-7-(methyloxy)-5-oxo-2,3,5,11a-tetrahydro-1H-benzo[e]pyrrolo[1,2-a][1,4]diazepin-8-yl]oxybutyl)hexahydro-1-pyrazinecarbodithioate]
- LC50 (50% lethal concentration) [1]: 100000 nM
- Log10 GI50 (concentration in mol/L) [1]: −6.26 mol/L
- Log10 GI50 (concentration in mol/L) [2]: −5.84 mol/L
- LC50 [2]: 7590 nM
- Log10 GI50 (concentration in mol/L) [3]: −6.02 mol/L
- LC50 [3]: 66100 nM
- GI50 [4]: 530 nM
- GI50 [5]: 320 nM
- GI50 [6]: 3290 nM
- GI50 ([7]; Leukemia MOLT-4, 48 h exposure): 350 nM
- GI50 [8]: 490 nM
- GI50 ([9]; Leukemia SR, 48 h exposure): 250 nM
- GI50 [10]: 1610 nM
- GI50 [11]: 1880 nM
- GI50 [12, 39]: 710 nM
- GI50 [13]: 1260 nM
- GI50 [14]: 1680 nM
- GI50 [15]: 1250 nM
- GI50 [16]: 1400 nM
- GI50 ([17]; Colon HCT-116, 48 h exposure): 540 nM
- GI50 [18]: 1390 nM
- GI50 ([19]; Colon SW-620, 48 h exposure): 1120 nM
- GI50 ([20]; CNS SF-268, 48 h exposure): 1230 nM
- GI50 [21]: 1640 nM
- GI50 [22, 40]: 1360 nM
- GI50 ([23]; Ovarian IGROV1, 48 h exposure): 420 nM
- GI50 [24]: 1820 nM
- GI50 [25]: 2470 nM
- GI50 [26]: 1280 nM
- GI50 [27]: 1190 nM
- GI50 [28]: 1160 nM
- GI50 [29]: 590 nM
- GI50 [30]: 410 nM
- GI50 [31]: 1530 nM
- GI50 [32]: 720 nM
- GI50 [33]: 1420 nM
- GI50 [34]: 570 nM
- GI50 ([35]; Prostate DU-145, 48 h exposure): 1470 nM
- GI50 [36]: 1970 nM
- GI50 [37]: 1320 nM
- Log10GI50 mean graph midpoint (MG_MID) [38]: −5.98
- Log10LC50 mean graph midpoint (MG_MID) [38]: −4.48
- Log10TGI mean graph midpoint (MG_MID) [38]: −5.28
